Experimental data taken from patent publication US11472791B2 (Incyte Corporation, priority 2019, dated 2022).

Molecular target: CDK2/Cyclin E1 (Homo sapiens (Human), UniProt P24941)
Assay: CDK2/Cyclin E1 HTRF enzyme activity assay
Type: biochemical
Conditions: 1 mM ATP
Experimental: Assays are conducted in white 384-well polystyrene plates in a final reaction volume of 8 μL. […] HTRF signals are read after 1 hour at room temperature on a PHERAstar FS plate reader (BMG Labtech). Data is analyzed with IDBS XLFit and GraphPad Prism 5.0 software using a three or four parameter dose response curve to determine IC50 for each compound.

Row | Compound | IC50 [nM]
1 | CS(=O)(=O)N1CCC(Nc2ncc(C#N)c(-c3cnn(-c4ccc(CN[C@H]5CCCOC5)cc4Cl)c3)n2)CC1 [Example 196, (S)-4-(1-(2-Chloro-4-(((tetrahydro-2H-pyran-3-yl)amino)methyl)phenyl)-1H-pyrazol-4-yl)-2-((1-(methylsulfonyl)piperidin-4-yl)amino)pyrimidine-5-carbonitrile] | < 50
2 | CCOC(=O)N1CCC(NCc2ccc(-n3cc(-c4nc(NC5CCN(S(C)(=O)=O)CC5)ncc4C#N)cn3)c(Cl)c2)CC1 [Example 197, Ethyl 4-((3-chloro-4-(4-(5-cyano-2-((1-(methylsulfonyl)piperidin-4-yl)amino)pyrimidin-4-yl)-1H-pyrazol-1-yl)benzyl)amino)piperidine-1-carboxylate] | < 50
3 | CS(=O)(=O)N1CCC(Nc2ncc(C#N)c(-c3cnn(-c4ccc(CNCCOC(F)(F)F)cc4Cl)c3)n2)CC1 [Example 199, 4-(1-(2-Chloro-4-(((2-(trifluoromethoxy)ethyl)amino)methyl)phenyl)-1H-pyrazol-4-yl)-2-((1-(methylsulfonyl)piperidin-4-yl)amino)pyrimidine-5-carbonitrile] | < 50
4 | CS(=O)(=O)CCNCc1ccc(-n2cc(-c3nc(NC4CCN(S(C)(=O)=O)CC4)ncc3C#N)cn2)c(Cl)c1 [Example 200, 4-(1-(2-Chloro-4-(((2-(methylsulfonyl)ethyl)amino)methyl)phenyl)-1H-pyrazol-4-yl)-2-((1-(methylsulfonyl)piperidin-4-yl)amino)pyrimidine-5-carbonitrile] | < 50
5 | CC(C)(O)Cn1cc(-c2nc(N[C@H]3CCN(S(=O)(=O)CCCN4CCOCC4)C[C@H]3F)ncc2C(F)(F)F)cn1 [Example 201, 1-(4-(2-(((3R,4S)-3-Fluoro-1-((3-morpholinopropyl)sulfonyl)piperidin-4-yl)amino)-5-(trifluoromethyl)pyrimidin-4-yl)-1H-pyrazol-1-yl)-2-methylpropan-2-ol] | < 50
6 | CCN(CC)CCCS(=O)(=O)N1CC[C@H](Nc2ncc(C(F)(F)F)c(-c3cnn(CC(C)(C)O)c3)n2)[C@H](F)C1 [Example 202, 1-(4-(2-(((3R,4S)-1-((3-(Diethylamino)propyl)sulfonyl)-3-fluoropiperidin-4-yl)amino)-5-(trifluoromethyl)pyrimidin-4-yl)-1H-pyrazol-1-yl)-2-methylpropan-2-ol] | < 50
7 | CC(C)(O)Cn1cc(-c2nc(N[C@H]3CCN(S(=O)(=O)CCCN4CCCC4)C[C@H]3F)ncc2C(F)(F)F)cn1 [Example 203, 1-(4-(2-(((3R,4S)-3-Fluoro-1-((3-(pyrrolidin-1-yl)propyl)sulfonyl)piperidin-4-yl)amino)-5-(trifluoromethyl)pyrimidin-4-yl)-1H-pyrazol-1-yl)-2-methylpropan-2-ol] | < 50
8 | CC(C)(O)Cn1cc(-c2nc(N[C@H]3CCN(S(=O)(=O)CCCN4CCCCC4)C[C@H]3F)ncc2C(F)(F)F)cn1 [Example 204, 1-(4-(2-(((3R,4S)-3-Fluoro-1-((3-(piperidin-1-yl)propyl)sulfonyl)piperidin-4-yl)amino)-5-(trifluoromethyl)pyrimidin-4-yl)-1H-pyrazol-1-yl)-2-methylpropan-2-ol] | < 50
9 | CN(C)CCCS(=O)(=O)N1CC[C@H](Nc2ncc(C(F)(F)F)c(-c3cnn(CC(C)(C)O)c3)n2)[C@H](F)C1 [Example 205, 1-(4-(2-(((3R,4S)-1-((3-(Dimethylamino)propyl)sulfonyl)-3-fluoropiperidin-4-yl)amino)-5-(trifluoromethyl)pyrimidin-4-yl)-1H-pyrazol-1-yl)-2-methylpropan-2-ol] | < 50
10 | CO[C@@H]1CCN(CCCS(=O)(=O)N2CC[C@H](Nc3ncc(C(F)(F)F)c(-c4cnn(CC(C)(C)O)c4)n3)[C@H](F)C2)C1 [Example 206, 1-(4-(2-(((3R,4S)-3-Fluoro-1-((3-((R)-3-methoxypyrrolidin-1-yl)propyl)sulfonyl)piperidin-4-yl)amino)-5-(trifluoromethyl)pyrimidin-4-yl)-1H-pyrazol-1-yl)-2-methylpropan-2-ol] | < 50
11 | COC1CCN(CCCS(=O)(=O)N2CC[C@H](Nc3ncc(C(F)(F)F)c(-c4cnn(CC(C)(C)O)c4)n3)[C@H](F)C2)CC1 [Example 207, 1-(4-(2-(((3R,4S)-3-Fluoro-1-((3-(4-methoxypiperidin-1-yl)propyl)sulfonyl)piperidin-4-yl)amino)-5-(trifluoromethyl)pyrimidin-4-yl)-1H-pyrazol-1-yl)-2-methylpropan-2-ol] | < 50
12 | CC(C)(O)Cn1cc(-c2nc(N[C@H]3CCN(S(=O)(=O)CCCN4CCC(O)CC4)C[C@H]3F)ncc2C(F)(F)F)cn1 [Example 208, 1-(3-(((3R,4S)-3-Fluoro-4-((4-(1-(2-hydroxy-2-methylpropyl)-1H-pyrazol-4-yl)-5-(trifluoromethyl)pyrimidin-2-yl)amino)piperidin-1-yl)sulfonyl)propyl)piperidin-4-ol] | < 50
13 | CN1CCN(CCCS(=O)(=O)N2CC[C@H](Nc3ncc(C(F)(F)F)c(-c4cnn(CC(C)(C)O)c4)n3)[C@H](F)C2)CC1 [Example 209, 1-(4-(2-(((3R,4S)-3-Fluoro-1-((3-(4-methylpiperazin-1-yl)propyl)sulfonyl)piperidin-4-yl)amino)-5-(trifluoromethyl)pyrimidin-4-yl)-1H-pyrazol-1-yl)-2-methylpropan-2-ol] | < 50
14 | CCN1CCN(CCCS(=O)(=O)N2CC[C@H](Nc3ncc(C(F)(F)F)c(-c4cnn(CC(C)(C)O)c4)n3)[C@H](F)C2)CC1 [Example 210, 1-(4-(2-(((3R,45)-1-((3-(4-Ethylpiperazin-1-yl)propyl)sulfonyl)-3-fluoropiperidin-4-yl)amino)-5-(trifluoromethyl)pyrimidin-4-yl)-1H-pyrazol-1-yl)-2-methylpropan-2-ol] | < 50
15 | CN1C[C@@H]2C[C@H]1CN2CCCS(=O)(=O)N1CC[C@H](Nc2ncc(C(F)(F)F)c(-c3cnn(CC(C)(C)O)c3)n2)[C@H](F)C1 [Example 211, 1-(4-(2-(((3R,4S)-3-Fluoro-1-((3-((1S,4S)-5-methyl-2,5-diazabicyclo[2.2.1]heptan-2-yl)propyl)sulfonyl)piperidin-4-yl)amino)-5-(trifluoromethyl)pyrimidin-4-yl)-1H-pyrazol-1-yl)-2-methylpropan-2-ol] | < 50
16 | CN1CCN(CCCS(=O)(=O)N2CC[C@H](Nc3ncc(C(F)(F)F)c(-c4cnn(CC(C)(C)O)c4)n3)[C@H](F)C2)CC1=O [Example 212, 4-(3-(((3R,4S)-3-Fluoro-4-((4-(1-(2-hydroxy-2-methylpropyl)-1H-pyrazol-4-yl)-5-(trifluoromethyl)pyrimidin-2-yl)amino)piperidin-1-yl)sulfonyl)propyl)-1-methylpiperazin-2-one] | < 50
17 | CCN(CC)CCCS(=O)(=O)N1CCC(Nc2ncc(C#N)c(-c3cnn(CC(C)(C)O)c3)n2)CC1 [Example 213, 2-((1-((3-(Diethylamino)propyl)sulfonyl)piperidin-4-yl)amino)-4-(1-(2-hydroxy-2-methylpropyl)-1H-pyrazol-4-yl)pyrimidine-5-carbonitrile] | < 50
18 | CC(C)(O)Cn1cc(-c2nc(NC3CCN(S(=O)(=O)CCCN4CCCC4)CC3)ncc2C#N)cn1 [Example 214, 4-(1-(2-Hydroxy-2-methylpropyl)-1H-pyrazol-4-yl)-2-((1-((3-(pyrrolidin-1-yl)propyl)sulfonyl)piperidin-4-yl)amino)pyrimidine-5-carbonitrile] | < 50
19 | CC(C)(O)Cn1cc(-c2nc(NC3CCN(S(=O)(=O)CCCN4CCCCC4)CC3)ncc2C#N)cn1 [Example 215, 4-(1-(2-Hydroxy-2-methylpropyl)-1H-pyrazol-4-yl)-2-((1-((3-(piperidin-1-yl)propyl)sulfonyl)piperidin-4-yl)amino)pyrimidine-5-carbonitrile] | < 50
20 | CCN(CC)CCCCS(=O)(=O)N1CCC(Nc2ncc(C#N)c(-c3cnn(CC(C)(C)O)c3)n2)CC1 [Example 216, 2-((1-((4-(Diethylamino)butyl)sulfonyl)piperidin-4-yl)amino)-4-(1-(2-hydroxy-2-methylpropyl)-1H-pyrazol-4-yl)pyrimidine-5-carbonitrile] | < 50
21 | CC(C)(O)Cn1cc(-c2nc(NC3CCN(S(=O)(=O)CCCCN4CCCC4)CC3)ncc2C#N)cn1 [Example 217, 4-(1-(2-Hydroxy-2-methylpropyl)-1H-pyrazol-4-yl)-2-((1-((4-(pyrrolidin-1-yl)butyl)sulfonyl)piperidin-4-yl)amino)pyrimidine-5-carbonitrile] | < 50
22 | CC(C)(O)Cn1cc(-c2nc(NC3CCN(S(=O)(=O)CCCCN4CCCCC4)CC3)ncc2C#N)cn1 [Example 218, 4-(1-(2-Hydroxy-2-methylpropyl)-1H-pyrazol-4-yl)-2-((1-((4-(piperidin-1-yl)butyl)sulfonyl)piperidin-4-yl)amino)pyrimidine-5-carbonitrile] | < 50
23 | CO[C@H]1CCN(CCCS(=O)(=O)N2CCC(Nc3ncc(C(F)(F)F)c(-c4cnn(CC(C)(C)O)c4)n3)CC2)C1 [Example 219, (S)-1-(4-(2-((1-((3-(3-Methoxypyrrolidin-1-yl)propyl)sulfonyl)piperidin-4-yl)amino)-5-(trifluoromethyl)pyrimidin-4-yl)-1H-pyrazol-1-yl)-2-methylpropan-2-ol] | < 50
24 | CO[C@@H]1CCN(CCCS(=O)(=O)N2CCC(Nc3ncc(C(F)(F)F)c(-c4cnn(CC(C)(C)O)c4)n3)CC2)C1 [Example 220, (R)-1-(4-(2-((1-((3-(3-Methoxypyrrolidin-1-yl)propyl)sulfonyl)piperidin-4-yl)amino)-5-(trifluoromethyl)pyrimidin-4-yl)-1H-pyrazol-1-yl)-2-methylpropan-2-ol] | < 50
25 | COC[C@@H]1CCN1CCCS(=O)(=O)N1CCC(Nc2ncc(C(F)(F)F)c(-c3cnn(CC(C)(C)O)c3)n2)CC1 [Example 221, (S)-1-(4-(2-((1-((3-(2-(Methoxymethyl)azetidin-1-yl)propyl)sulfonyl)piperidin-4-yl)amino)-5-(trifluoromethyl)pyrimidin-4-yl)-1H-pyrazol-1-yl)-2-methylpropan-2-ol] | < 50
